Laboratory results taken from paper PMC4823954, “From fighting depression to conquering tumors: a novel tricyclic thiazepine compound as a tubulin polymerization inhibitor” (Cell Death & Disease, 2016).

Tests used:
[1] = test system: H460TaxR; test: Apoptosis flow cytometry (PI/Annexin V-FITC); type: cell-based, human; conditions: NSCLC cells (H460TaxR), 2 μM, 48 h
[2] = molecular target: T1, ABL1(T315I)-nonphosphorylated (Homo sapiens, UniProt P00519, T315I); test: KINOMEscan; type: binding; conditions: read-out: % Ctrl
T1 construct: purchased DiscoveRx KINOMEscan

[3] = molecular target: T2, CDKL2 (Homo sapiens, UniProt Q92772); test: KINOMEscan; type: binding; conditions: read-out: % Ctrl
T2 construct: purchased DiscoveRx KINOMEscan
In short: (§1)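 Competition binding panel of 442 non-mutant kinases: test compound at 5 and 10 μM competed with an active-site-directed ligand for 1 h with shaking. Bound kinase was eluted with 0.5 μM ligand and quantified by qPCR; %Ctrl = (compound − positive control)/(DMSO − positive control) × 100, lower meaning tighter binding.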

[4] = molecular target: T3, CSNK1G2 (Homo sapiens, UniProt P78368); test: KINOMEscan; type: binding; conditions: read-out: % Ctrl
T3 construct: purchased DiscoveRx KINOMEscan
In short: as §1

[5] = molecular target: T4, CSNK2A2 (Homo sapiens, UniProt P19784); test: KINOMEscan; type: binding; conditions: read-out: % Ctrl
T4 construct: purchased DiscoveRx KINOMEscan
In short: as §1

[6] = molecular target: T5, DMPK (Homo sapiens, UniProt Q09013); test: KINOMEscan; type: binding; conditions: read-out: % Ctrl
T5 construct: purchased DiscoveRx KINOMEscan
In short: as §1

[7] = molecular target: T6, DMPK2 (Homo sapiens, UniProt Q6DT37); test: KINOMEscan; type: binding; conditions: read-out: % Ctrl
T6 construct: purchased DiscoveRx KINOMEscan
In short: as §1

[8] = molecular target: T7, ERBB2 (Homo sapiens, UniProt P04626); test: KINOMEscan; type: binding; conditions: read-out: % Ctrl
T7 construct: purchased DiscoveRx KINOMEscan
In short: as §1

[9] = molecular target: T8, INSR (Homo sapiens, UniProt P06213); test: KINOMEscan; type: binding; conditions: read-out: % Ctrl
T8 construct: purchased DiscoveRx KINOMEscan
In short: as §1

[10] = molecular target: T9, IRAK3 (Homo sapiens, UniProt Q9Y616); test: KINOMEscan; type: binding; conditions: read-out: % Ctrl
T9 construct: purchased DiscoveRx KINOMEscan
In short: as §1

[11] = molecular target: T10, KIT(D816H) (Homo sapiens, UniProt P10721, D816H); test: KINOMEscan; type: binding; conditions: read-out: % Ctrl
T10 construct: purchased DiscoveRx KINOMEscan

[12] = molecular target: T11, KIT(D816V) (Homo sapiens, UniProt P10721, D816V); test: KINOMEscan; type: binding; conditions: read-out: % Ctrl
T11 construct: purchased DiscoveRx KINOMEscan

[13] = molecular target: T12, LKB1 (Homo sapiens, UniProt Q15831); test: KINOMEscan; type: binding; conditions: read-out: % Ctrl
T12 construct: purchased DiscoveRx KINOMEscan
In short: as §1

[14] = molecular target: T13, MAP4K4 (Homo sapiens, UniProt O95819); test: KINOMEscan; type: binding; conditions: read-out: % Ctrl
T13 construct: purchased DiscoveRx KINOMEscan
In short: as §1

[15] = molecular target: T14, MET(Y1235D) (Homo sapiens, UniProt P08581, Y1235D); test: KINOMEscan; type: binding; conditions: read-out: % Ctrl
T14 construct: purchased DiscoveRx KINOMEscan

[16] = molecular target: T15, MLK2 (Homo sapiens, UniProt Q02779); test: KINOMEscan; type: binding; conditions: read-out: % Ctrl
T15 construct: purchased DiscoveRx KINOMEscan
In short: as §1

[17] = molecular target: T16, MST4 (Homo sapiens, UniProt Q9P289); test: KINOMEscan; type: binding; conditions: read-out: % Ctrl
T16 construct: purchased DiscoveRx KINOMEscan
In short: as §1

[18] = molecular target: T17, PRKX (Homo sapiens, UniProt P51817); test: KINOMEscan; type: binding; conditions: read-out: % Ctrl
T17 construct: purchased DiscoveRx KINOMEscan
In short: as §1

[19] = molecular target: T18, RPS6KA5(Kin.Dom.1-N-terminal) (Homo sapiens, UniProt O75582); test: KINOMEscan; type: binding; conditions: read-out: % Ctrl
T18 construct: RPS6KA5(Kin.Dom.1-N-terminal); purchased DiscoveRx KINOMEscan
In short: as §1

[20] = molecular target: T19, STK33 (Homo sapiens, UniProt Q9BYT3); test: KINOMEscan; type: binding; conditions: read-out: % Ctrl
T19 construct: purchased DiscoveRx KINOMEscan
In short: as §1

[21] = molecular target: T20, TIE1 (Homo sapiens, UniProt P35590); test: KINOMEscan; type: binding; conditions: read-out: % Ctrl
T20 construct: purchased DiscoveRx KINOMEscan
In short: as §1

[22] = molecular target: T21, TNK1 (Homo sapiens, UniProt Q13470); test: KINOMEscan; type: binding; conditions: read-out: % Ctrl
T21 construct: purchased DiscoveRx KINOMEscan
In short: as §1

[23] = molecular target: T22, p38-beta (Homo sapiens, UniProt Q15759); test: KINOMEscan; type: binding; conditions: read-out: % Ctrl
T22 construct: purchased DiscoveRx KINOMEscan
In short: as §1

[24] = molecular target: T23, EGFR(L858R) (Homo sapiens, UniProt P00533, L858R); test: KINOMEscan; type: binding; conditions: read-out: % Ctrl
T23 construct: purchased DiscoveRx KINOMEscan

[25] = molecular target: T24, FLT3(D835Y) (Homo sapiens, UniProt P36888, D835Y); test: KINOMEscan; type: binding; conditions: read-out: % Ctrl
T24 construct: purchased DiscoveRx KINOMEscan

[26] = mouse, in vivo
Experimental: Five injections of vehicle and TBPT (30 or 60 mg/kg) were administered intravenously at days 1, 3, 5, 7 and 9 (arrows). Four injections of PTX (10 mg/kg) were administered intravenously at days 1, 3, 5 and 7. (a) The tumor volume was measured every other day. When the tumor volume in the solvent-treated group exceeded 1500 mm^3, the experiment was terminated. (b) Blood biochemical and hematological analyses. (c) The body weights of the mice were monitored every other day during the experiments. *P<0.05, Student's t-test with day 0, N=5
Figure 3 Histopathological examination of the major organs from TBPT or PTX-treated mouse tumor at the end of the experiments. The cross-sections of organs were stained with hematoxylin–eosin. […] The scale bars represent 50 μm and are uniform in each column
H460 and H460TaxR cells (5 × 10^6 cells in 100 μl PBS) were injected subcutaneously into the dorsal flank of each mouse. When the tumors reached volumes of 100 mm^3, the mice were divided randomly into four groups. The mice were treated every other day five times with intravenous injections of (1) vehicle (the solvent of TBPT: 60% PBS, 8% Cremophor EL, 8% EtOH, 12% poly propylene glycol and 12% PEG-400), (2) TBPT (30 mg/kg) or (3) TBPT (60 mg/kg). Another group was treated with PTX (10 mg/kg) every other day four times as the positive control. The tumor dimensions and body weights were measured every other day. The tumor volume was calculated according to a standard formula: volume=width^2 × length/2. The experiment was terminated and the mice were killed when the tumor volumes in the solvent-treated group exceeded 1500 mm^3. The mouse organs and blood were collected and used for hematoxylin–eosin staining and serum chemistry assay. TGI rates were assessed using the following formula: TGI=1− (Tt−T0)/(Ct−C0) × 100%. Tt and T0 indicate the tumor volumes of the treated group at days t and 0. Ct and C0 indicate the tumor volumes of the control group at days t and 0, respectively.

T2 sequence (Q92772 whole entry): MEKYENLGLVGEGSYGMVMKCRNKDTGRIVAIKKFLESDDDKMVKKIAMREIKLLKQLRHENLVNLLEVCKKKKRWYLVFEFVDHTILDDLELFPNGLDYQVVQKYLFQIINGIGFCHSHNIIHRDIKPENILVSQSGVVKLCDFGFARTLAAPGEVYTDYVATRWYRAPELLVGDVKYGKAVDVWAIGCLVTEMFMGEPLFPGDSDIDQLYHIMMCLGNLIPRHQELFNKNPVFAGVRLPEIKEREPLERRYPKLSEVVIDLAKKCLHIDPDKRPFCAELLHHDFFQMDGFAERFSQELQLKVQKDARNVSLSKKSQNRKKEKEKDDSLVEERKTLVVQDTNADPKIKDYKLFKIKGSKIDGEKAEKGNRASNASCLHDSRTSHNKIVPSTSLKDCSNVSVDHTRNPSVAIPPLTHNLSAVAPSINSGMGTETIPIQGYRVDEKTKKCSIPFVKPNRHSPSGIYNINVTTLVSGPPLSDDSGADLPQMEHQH
T9 sequence (Q9Y616 whole entry): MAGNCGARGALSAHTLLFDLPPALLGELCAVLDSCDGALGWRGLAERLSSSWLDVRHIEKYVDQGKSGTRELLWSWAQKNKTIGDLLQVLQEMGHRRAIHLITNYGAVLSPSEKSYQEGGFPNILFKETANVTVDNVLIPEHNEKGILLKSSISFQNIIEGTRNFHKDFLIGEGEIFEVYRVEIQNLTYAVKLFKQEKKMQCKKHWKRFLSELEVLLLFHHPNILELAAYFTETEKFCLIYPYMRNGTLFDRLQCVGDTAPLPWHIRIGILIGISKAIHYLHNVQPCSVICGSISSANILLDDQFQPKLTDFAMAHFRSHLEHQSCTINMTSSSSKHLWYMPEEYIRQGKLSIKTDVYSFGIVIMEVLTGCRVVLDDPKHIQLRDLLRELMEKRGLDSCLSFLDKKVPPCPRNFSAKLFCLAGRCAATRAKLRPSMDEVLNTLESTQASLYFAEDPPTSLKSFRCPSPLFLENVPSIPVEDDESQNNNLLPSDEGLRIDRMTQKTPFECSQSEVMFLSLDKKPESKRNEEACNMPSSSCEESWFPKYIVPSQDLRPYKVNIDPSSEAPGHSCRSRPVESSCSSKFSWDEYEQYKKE
T18 sequence (O75582 1-387 limits assumed): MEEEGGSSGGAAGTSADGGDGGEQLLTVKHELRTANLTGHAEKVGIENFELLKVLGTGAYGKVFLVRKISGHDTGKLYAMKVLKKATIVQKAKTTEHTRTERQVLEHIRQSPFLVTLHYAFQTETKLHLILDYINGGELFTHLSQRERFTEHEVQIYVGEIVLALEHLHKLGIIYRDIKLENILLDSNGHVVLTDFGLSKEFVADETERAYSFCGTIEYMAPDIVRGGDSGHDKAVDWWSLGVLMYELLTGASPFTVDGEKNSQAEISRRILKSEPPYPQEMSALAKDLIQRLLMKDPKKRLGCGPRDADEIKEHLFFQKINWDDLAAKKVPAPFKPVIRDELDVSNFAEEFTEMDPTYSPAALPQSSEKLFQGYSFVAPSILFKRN
T15 sequence (Q02779 whole entry): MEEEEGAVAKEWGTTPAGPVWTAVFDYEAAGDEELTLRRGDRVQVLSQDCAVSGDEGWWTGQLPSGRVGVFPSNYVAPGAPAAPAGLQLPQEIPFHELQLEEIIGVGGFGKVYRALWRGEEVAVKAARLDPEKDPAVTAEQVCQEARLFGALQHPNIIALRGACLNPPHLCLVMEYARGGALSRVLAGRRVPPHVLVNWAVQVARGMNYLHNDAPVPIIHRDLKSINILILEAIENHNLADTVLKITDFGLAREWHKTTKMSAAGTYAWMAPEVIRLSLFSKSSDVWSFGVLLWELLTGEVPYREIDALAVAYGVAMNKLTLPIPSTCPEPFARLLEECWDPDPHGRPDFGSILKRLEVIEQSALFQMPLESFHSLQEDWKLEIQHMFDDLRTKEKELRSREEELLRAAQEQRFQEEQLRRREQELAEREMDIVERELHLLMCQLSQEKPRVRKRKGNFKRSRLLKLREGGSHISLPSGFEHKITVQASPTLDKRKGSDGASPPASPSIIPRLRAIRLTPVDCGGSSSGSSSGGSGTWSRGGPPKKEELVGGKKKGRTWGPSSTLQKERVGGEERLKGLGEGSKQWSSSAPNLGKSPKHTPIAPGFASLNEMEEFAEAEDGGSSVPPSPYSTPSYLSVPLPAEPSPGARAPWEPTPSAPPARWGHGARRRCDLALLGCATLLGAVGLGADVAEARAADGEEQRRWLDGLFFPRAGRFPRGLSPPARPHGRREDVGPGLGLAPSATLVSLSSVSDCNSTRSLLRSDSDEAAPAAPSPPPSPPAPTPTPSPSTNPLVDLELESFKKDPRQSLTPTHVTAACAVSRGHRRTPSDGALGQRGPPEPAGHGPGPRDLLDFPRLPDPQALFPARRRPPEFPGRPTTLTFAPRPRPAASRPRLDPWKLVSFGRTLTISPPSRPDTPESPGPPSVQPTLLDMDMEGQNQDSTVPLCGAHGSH
T17 sequence (P51817 whole entry): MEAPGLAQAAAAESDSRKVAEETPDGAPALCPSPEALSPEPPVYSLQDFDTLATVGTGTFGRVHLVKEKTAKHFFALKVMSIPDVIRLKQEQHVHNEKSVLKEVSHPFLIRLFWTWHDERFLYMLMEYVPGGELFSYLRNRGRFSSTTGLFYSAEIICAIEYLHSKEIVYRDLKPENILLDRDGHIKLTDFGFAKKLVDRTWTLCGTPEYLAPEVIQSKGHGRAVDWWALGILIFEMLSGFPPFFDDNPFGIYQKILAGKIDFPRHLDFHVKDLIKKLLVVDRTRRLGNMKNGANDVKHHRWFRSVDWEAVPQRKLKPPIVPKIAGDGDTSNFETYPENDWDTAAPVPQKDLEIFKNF
T8 sequence (P06213 28-1382): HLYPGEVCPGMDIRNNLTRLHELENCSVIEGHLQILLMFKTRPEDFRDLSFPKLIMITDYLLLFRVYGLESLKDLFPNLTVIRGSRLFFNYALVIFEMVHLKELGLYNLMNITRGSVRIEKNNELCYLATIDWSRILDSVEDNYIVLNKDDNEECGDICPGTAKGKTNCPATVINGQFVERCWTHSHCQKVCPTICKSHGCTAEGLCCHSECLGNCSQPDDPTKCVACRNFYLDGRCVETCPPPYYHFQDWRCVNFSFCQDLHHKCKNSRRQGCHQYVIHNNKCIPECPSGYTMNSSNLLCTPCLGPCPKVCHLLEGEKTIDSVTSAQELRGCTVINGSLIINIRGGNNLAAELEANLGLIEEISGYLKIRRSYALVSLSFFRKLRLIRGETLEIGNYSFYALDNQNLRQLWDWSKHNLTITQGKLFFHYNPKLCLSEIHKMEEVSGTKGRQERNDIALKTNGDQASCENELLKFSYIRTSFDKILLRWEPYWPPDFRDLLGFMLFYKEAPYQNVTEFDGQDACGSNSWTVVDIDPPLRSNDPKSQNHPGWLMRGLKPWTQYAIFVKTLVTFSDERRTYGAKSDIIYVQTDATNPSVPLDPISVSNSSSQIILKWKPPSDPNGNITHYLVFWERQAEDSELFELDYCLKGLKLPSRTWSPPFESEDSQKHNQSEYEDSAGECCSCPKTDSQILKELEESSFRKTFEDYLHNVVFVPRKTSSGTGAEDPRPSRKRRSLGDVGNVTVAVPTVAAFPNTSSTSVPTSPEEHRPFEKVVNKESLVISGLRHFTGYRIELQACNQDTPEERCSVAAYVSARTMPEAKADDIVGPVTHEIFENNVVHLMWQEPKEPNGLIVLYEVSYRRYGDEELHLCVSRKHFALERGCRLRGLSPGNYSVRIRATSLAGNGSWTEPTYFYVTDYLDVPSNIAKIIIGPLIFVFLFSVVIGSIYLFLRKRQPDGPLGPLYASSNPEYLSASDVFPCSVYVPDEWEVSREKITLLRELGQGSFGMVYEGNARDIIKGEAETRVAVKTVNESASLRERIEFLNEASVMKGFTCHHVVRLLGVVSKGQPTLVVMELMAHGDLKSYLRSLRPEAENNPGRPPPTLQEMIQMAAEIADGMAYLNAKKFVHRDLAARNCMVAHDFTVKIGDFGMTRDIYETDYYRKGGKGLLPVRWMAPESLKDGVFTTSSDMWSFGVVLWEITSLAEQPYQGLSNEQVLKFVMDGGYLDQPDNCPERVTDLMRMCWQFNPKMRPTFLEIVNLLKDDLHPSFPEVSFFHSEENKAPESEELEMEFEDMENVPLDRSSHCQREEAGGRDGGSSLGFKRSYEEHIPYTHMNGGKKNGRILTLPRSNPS
T4 sequence (P19784 whole entry): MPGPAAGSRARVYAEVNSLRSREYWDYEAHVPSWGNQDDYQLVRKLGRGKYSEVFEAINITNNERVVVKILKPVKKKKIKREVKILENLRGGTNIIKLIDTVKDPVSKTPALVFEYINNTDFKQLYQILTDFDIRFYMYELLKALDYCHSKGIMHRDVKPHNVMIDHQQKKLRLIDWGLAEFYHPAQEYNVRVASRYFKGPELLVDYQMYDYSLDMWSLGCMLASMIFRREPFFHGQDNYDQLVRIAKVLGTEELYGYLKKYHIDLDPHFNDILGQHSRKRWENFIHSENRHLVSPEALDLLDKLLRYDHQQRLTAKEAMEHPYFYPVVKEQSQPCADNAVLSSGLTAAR
T3 sequence (P78368 whole entry): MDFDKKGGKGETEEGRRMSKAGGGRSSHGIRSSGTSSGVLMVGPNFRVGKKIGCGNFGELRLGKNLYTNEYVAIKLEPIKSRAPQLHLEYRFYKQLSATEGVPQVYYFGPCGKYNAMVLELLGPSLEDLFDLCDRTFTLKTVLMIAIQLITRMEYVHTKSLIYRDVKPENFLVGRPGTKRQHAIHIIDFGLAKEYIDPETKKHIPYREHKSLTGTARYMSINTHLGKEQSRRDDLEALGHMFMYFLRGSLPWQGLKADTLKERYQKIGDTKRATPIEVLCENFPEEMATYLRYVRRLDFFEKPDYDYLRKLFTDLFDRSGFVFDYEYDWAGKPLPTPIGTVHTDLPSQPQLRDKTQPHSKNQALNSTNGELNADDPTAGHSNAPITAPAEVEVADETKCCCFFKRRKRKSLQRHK

## Cc1ccc(C2=Nc3cccnc3S(=O)(=O)c3ccccc32)cc1 [TBPT, 6-(p-tolyl)benzo[f] pyrido[2,3-b][1,4] thiazepine 11,11-dioxide]
[1]
  cells in an apoptotic/necrotic state: approximately 50%
[2]; 5 μM
  remaining binding at 5 µM: 100%
[2]; 10 μM
  remaining binding at 10 µM: 100%
[3]; 5 μM
  remaining binding at 5 µM: 95%
[3]; 10 μM
  remaining binding at 10 µM: 100%
[4]; 5 μM
  remaining binding at 5 µM: 100%
[4]; 10 μM
  remaining binding at 10 µM: 100%
[5]; 5 μM
  remaining binding at 5 µM: 100%
[5]; 10 μM
  remaining binding at 10 µM: 100%
[6]; 5 μM
  remaining binding at 5 µM: 88%
[6]; 10 μM
  remaining binding at 10 µM: 100%
[7]; 5 μM
  remaining binding at 5 µM: 100%
[7]; 10 μM
  remaining binding at 10 µM: 83%
[8]; 5 μM
  remaining binding at 5 µM: 100%
[8]; 10 μM
  remaining binding at 10 µM: 100%
[9]; 5 μM
  remaining binding at 5 µM: 98%
[9]; 10 μM
  remaining binding at 10 µM: 84%
[10]; 5 μM
  remaining binding at 5 µM: 92%
[10]; 10 μM
  remaining binding at 10 µM: 82%
[11]; 5 μM
  remaining binding at 5 µM: 71%
[11]; 10 μM
  remaining binding at 10 µM: 100%
[12]; 5 μM
  remaining binding at 5 µM: 62%
[12]; 10 μM
  remaining binding at 10 µM: 99%
[13]; 5 μM
  remaining binding at 5 µM: 100%
[13]; 10 μM
  remaining binding at 10 µM: 89%
[14]; 5 μM
  remaining binding at 5 µM: 94%
[14]; 10 μM
  remaining binding at 10 µM: 63%
[15]; 5 μM
  remaining binding at 5 µM: 89%
[15]; 10 μM
  remaining binding at 10 µM: 85%
[16]; 5 μM
  remaining binding at 5 µM: 70%
[16]; 10 μM
  remaining binding at 10 µM: 100%
[17]; 5 μM
  remaining binding at 5 µM: 63%
[17]; 10 μM
  remaining binding at 10 µM: 99%
[18]; 5 μM
  remaining binding at 5 µM: 92%
[18]; 10 μM
  remaining binding at 10 µM: 70%
[19]; 5 μM
  remaining binding at 5 µM: 100%
[19]; 10 μM
  remaining binding at 10 µM: 100%
[20]; 5 μM
  remaining binding at 5 µM: 99%
[20]; 10 μM
  remaining binding at 10 µM: 100%
[21]; 5 μM
  remaining binding at 5 µM: 100%
[21]; 10 μM
  remaining binding at 10 µM: 98%
[22]; 5 μM
  remaining binding at 5 µM: 100%
[22]; 10 μM
  remaining binding at 10 µM: 97%
[23]; 5 μM
  remaining binding at 5 µM: 100%
[23]; 10 μM
  remaining binding at 10 µM: 76%
[24]; 5 μM
  remaining binding at 5 µM: 85%
[24]; 10 μM
  remaining binding at 10 µM: 100%
[25]; 5 μM
  remaining binding at 5 µM: 92%
[25]; 10 μM
  remaining binding at 10 µM: 100%
[26]
  histopathological examination of the major organs: No pathological changes were observed
